Results reported in patent US20170027893A1, “THIOSEMICARBAZONES INHIBITORS OF LYSOPHOSPHATIDIC ACID ACYLTRANSFERASE AND USES THEREOF” (H. LEE CANCER CENTER AND RESEARCH INSTITUTE, INC., priority 2014, published 2017).
Read-outs that look alike come from different tables or passages of the source. One block for each compound: values may come before it.

Columns and labels:
mTOR signaling = assay: inhibition of mTOR signaling (FIG. 20); type: cell-based
Excerpt: P-p7056k and p-4EBP1 are decreased by treatment at 3 micromolar or higher.

pancreatic cancer cells [1] = assay: combination treatment with regorafenib (FIG. 23); type: cell-based
Excerpt: This is important for the use of YG9-095-3 in combination with standard therapy for Kras mutant colon cancer.

MDAMB-231 = assay: anchorage-independent growth in agar; type: cell-based, human; settings: MDAMB-231, 2-4 weeks in agar
Method: (§1) FIG. 3. LPAAT-β inhibitors block anchorage-independent growth of cancer cell lines. Human pancreatic (MiaPaCa2 and Panc-1), ovarian (OVCAR-5) and breast cancer (MDAMB-231) cells were plated into 3% agar containing LPAAT-β inhibitors and allowed to grow for 2-4 weeks in the presence of the compounds. […] This effect of the small molecules is similar to the effect of knockdown with LPAAT-β siRNA (nt, non-targeting; LP-1, LPAAT-β).

OVCAR-5 = assay: anchorage-independent growth in agar; type: cell-based, human; settings: OVCAR-5, 2-4 weeks in agar
Method: as §1

Panc-1 [2] = assay: anchorage-independent growth in agar; type: cell-based, human; settings: Panc-1, 2-4 weeks in agar
Method: as §1

MiaPaCa2 = assay: anchorage-independent growth in agar; type: cell-based, human; settings: MiaPaCa2, 2-4 weeks in agar
Method: as §1

LPAAT-β [3] = target: T1, LPAAT-β (Homo sapiens, UniProt O15120); assay: secondary thin layer chromatography (TLC) assay measuring fluorescent PA; type: biochemical; parameters: The assay utilizes full-length, recombinant, baculovirus-produced LPAAT-β; made in house
T1 sequence (O15120 24-278): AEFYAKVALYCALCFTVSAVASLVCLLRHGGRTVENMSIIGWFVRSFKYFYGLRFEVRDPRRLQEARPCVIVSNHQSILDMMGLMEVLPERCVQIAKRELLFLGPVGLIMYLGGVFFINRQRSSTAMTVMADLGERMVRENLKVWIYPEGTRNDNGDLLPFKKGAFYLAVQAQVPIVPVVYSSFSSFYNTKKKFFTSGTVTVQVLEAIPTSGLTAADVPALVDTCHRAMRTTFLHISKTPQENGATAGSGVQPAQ

[4] = test system: Caspase 3 activity in IGROV-1 cells; assay: induction of apoptosis, cleavage of fluorescent Caspase 3 substrate; type: cell-based, human; settings: IGROV-1, 48 hr
Method: FIGS. 5A-5B. Induction of apoptosis with 19s treatment in pancreatic and ovarian cancer cell lines. Human pancreatic (MiaPaCa2) and ovarian (IGROV-1) cells were treated for 48 hr with LPAAT-b inhibitors then harvested and the samples assayed for their ability to cleave a fluorescent Caspase 3 specific substrate, Av-DEVD-AMC (A) In addition, the samples were run on SDS-PAGE gels and Western blotted to assess the presence of the activated form of Caspase 3 (inset). MiaPaCa2 cells show 3.5-fold and IGROV-1 cells show 25-fold activation of Caspase 3 activity after treatment with 19s compared to a vehicle-treated control sample. (B) PARP cleavage in MiaPaCa2 cells treated for 72 hr with 10 μM 19s and 19p.

pancreatic cancer cells [5] = assay: cell cycle progression (FIG. 22); type: cell-based
[6] = test system: mTOR effector protein phosphorylation in MiaPaCa2 cells; assay: mTOR effector protein phosphorylation, Western blotting; type: cell-based; settings: Homo sapiens
Excerpt: FIG. 4. Inhibition of mTOR effector protein phosphorylation by LPAAT-β inhibitor.

RalA = RalA activation (FIG. 21); type: cell-based
Excerpt: Therefore this inhibitor can target the RalA effector arm as well as mTOR which few compounds can do.

total cellular PA levels = total cellular PA levels measured by mass spectroscopy in intact cells; type: cell-based
Excerpt: Inhibition is by more than 50%. Inhibition is greater than that seen with a known DAGK inhibitor. DAGK is an enzyme that can also increase PA levels.

LPAAT-β [7] = target: T1, LPAAT-β; assay: DTNB (Ellman's reagent) 96-well plate screening assay of LPAAT-β enzymatic activity; type: biochemical; parameters: The assay utilizes full-length, recombinant, baculovirus-produced LPAAT-β; made in house
Method: Screening with a modified screening assay in 96-well plate format for LPAAT-β enzymatic activity was performed as reported by Aguado and Campbell (Aguado et al., Characterization of a human lysophosphatidic acid acyltransferase that is encoded by a gene located in the class III region of the human major histocompatibility complex. J. Biol. Chem. 1998, 273, 4096-105).
The assay utilizes full-length, recombinant, baculovirus-produced LPAAT-β, which catalyzes the production of dioleoyl-[…] from the enzymatic substrates oleoyl-lysophosphatidic acid (LPA) and oleoyl-coenzyme A (Scheme 2). The ability of the compound to inhibit the LPAAT-β activity was assayed by the colorimetric measurement of the reaction of the free thiol group of the released coenzyme A with Ellman's reagent [5,5′-dithiobis-(2-nitrobenzoic acid) or DTNB] (Riener et al., Quick measurement of protein sulfhydryls with Ellman's reagent and with 4,4′-dithiodipyridine. Anal. Bioanal. Chem. 2002, 373, 266-76). […] A hit identified from the Life Chemicals library 6a (IC50 100 nM) was selected for further investigation.

[8] = test system: IGROV-1 ovarian cancer cells; assay: combination with 5-FU, proliferation by Alamar blue, isobolograms; type: cell-based, human; settings: IGROV-1, 72 hr, simultaneous combination
Method: (§2) FIG. 6. Synergistic effect of YG9-095-3 with 5-FU in IGROV-1 ovarian cancer cells. Human ovarian and pancreatic carcinoma cell lines (IGROV-1 and OVCAR-5; Panc-1) were treated for 72 hr with 19s, 5-FU, and the two drugs in simultaneous combination. […] However, in OVCAR-5 cells, at low concentration there appears to be an additive effect of the two drugs on proliferation, but the effect becomes antagonistic at the higher concentrations of YG9-095-3.

OVCAR-5 cells = assay: as above; type: cell-based, human; settings: OVCAR-5, 72 hr
Method: as §2

Panc-1 [9] = assay: as above; type: cell-based, human; settings: Panc-1, 72 hr
Method: as §2

[10] = body fat percentage measured by MRI in treated mice; type: in vivo; settings: after 20 days of treatment
Excerpt: YG9-095-3 can be a useful compound for the treatment of obesity as well as cancer.

[11] = test system: MiaPaCa2 human pancreatic cancer cells; assay: inhibition of proliferation, Alamar blue, 72 h; type: cell-based; settings: Homo sapiens, MIA PaCa-2
Method: The ability of selected compounds from the libraries 6, 15 and 19 to inhibit the growth of MiaPaCa2 human pancreatic cancer cells was investigated. Human pancreatic carcinoma (MiaPaCa2) cells were plated at a low confluency into 96-well tissue culture-treated plates. After allowing cells to attach and grow overnight at 37 degrees in a 5% CO2 incubator, growth medium was replaced with fresh medium (100 μl/well) containing compounds in a range from 0.1-100 μM. All treatments were made from 500× stock solutions in DMSO, and the control wells received an equivalent amount of DMSO in medium. After 72 hours of growth in the presence of the compounds, Alamar blue was added to the wells according to the manufacturer's instructions (Life Technologies, Grand Island, N.Y.) and cells were incubated in its presence for 2-3 hours. Fluorescence readings were performed using a Biotek Synergy II plate reader with […] wavelengths of 530/590 nm. […] Calculated IC50s are representative of at least three independent experiments.

LPAAT-β [12] = target: T1, LPAAT-β; settings: previously reported inhibitors; cited from earlier work

- IC50 (LPAAT-β [3]): 2.4 ± 0.7 µM
- IC50 (LPAAT-β [3]; Table 4): 2.4 ± 0.7 µM
- cell membrane permeability (total cellular PA levels; concluded from treatment of intact cells): cell membrane permeable
- IC50 (LPAAT-β [7]; Table 4, read-out: IC50 (μm) (DTNB assay) (converted)): 0.36 ± 0.1 µM
- IC50 (LPAAT-β [7]; read-out: IC50 (μM) (DTNB assay) (converted)): 0.36 ± 0.1 µM
- IC50 [11]: 6.3 ± 2.9 µM
SMILES: C=CCc1cc(-c2ccc(Cl)c(Cl)c2)cc(C(C)=NNC(N)=S)c1O [Compound 19s]
- concentration at which P-p70S6k and p-4EBP1 are decreased (mTOR signaling): ≥ 3 µM
- combination effect with regorafenib (pancreatic cancer cells [1]): additive to synergistic inhibition
- inhibition of anchorage-independent growth (MDAMB-231): potent inhibition
- inhibition of anchorage-independent growth (OVCAR-5): potent inhibition
- inhibition of anchorage-independent growth (Panc-1 [2]): potent inhibition
- inhibition of anchorage-independent growth (MiaPaCa2): potent inhibition
- activation of Caspase 3 activity compared to vehicle-treated control [4]: 25 fold
- effect on cell cycle progression (pancreatic cancer cells [5]): S-phase arrest and accumulation
- rescue of cells from the cell cycle effect by exogenous PA (pancreatic cancer cells [5]): can be rescued
- inhibition at 10 µM ([6]; MIA PaCa-2, read-out: inhibition of P-4E-BP 1): 76%
- inhibition at 10 µM ([6]; MIA PaCa-2, read-out: inhibition of P-AKT): 88%
- inhibition at 10 µM ([6]; MIA PaCa-2, read-out: inhibition of P-p70): 43%
- inhibition of RalA activation (RalA): 50%
- inhibition (reduction) of total cellular PA levels (total cellular PA levels; mass spectroscopy, intact cells): more than 50%
- combination effect with 5-FU on cellular proliferation [8]: moderately synergistic
- combination effect with 5-FU on cellular proliferation (OVCAR-5 cells; at low concentration): additive
- combination effect with 5-FU on cellular proliferation (OVCAR-5 cells; at the higher concentrations of YG9-095-3): antagonistic
- combination effect with 5-FU on cellular proliferation (Panc-1 [9]): mildly additive to antagonistic
- decrease in body fat percentage compared to vehicle treated controls [10]: 50%

SMILES: C#CCOC(=O)Nc1ccc(Cl)c(-c2nc3cc(Cl)ccc3o2)c1 [Compound 3]
- in vitro activity against LPAAT-β enzyme activity, in words (LPAAT-β [12]): potent anti-enzymatic activity

SMILES: CCOc1ccc(Cl)cc1-c1cc(Nc2ccc(Cl)cc2)nc(N)n1 [Compound 1]
- in vitro activity against LPAAT-β enzyme activity, in words (LPAAT-β [12]): potent in vitro activity
